The record followed here is ChEMBL document CHEMBL1142485, “Axial chirality and affinity at the GABA(A) receptor of pyrimido[1,2-a][1,4]benzodiazepines and related compounds” (Bioorg Med Chem, 2008).

pIC50: −log10 of the molar value. “And” between values parts separate entries of the source, which are not always exact repeats. Identical values can stand only once.

The species entered for the first assay is Rattus norvegicus. The assay is described as follows: Displacement of [3H]flunitrazepam from GABAA benzodiazepine receptor in rat brain membrane at 10 uM. The assay is classed as cell membranes.
On to `Cc1cc(=O)n2c(n1)CC/N=C(/c1ccccc1)c1cc(Cl)ccc1-2`, for which the Activity is -18%. In the case of `Cc1cc(=O)n2c(n1)CN=C(c1ccccc1)c1cc(Cl)ccc1-2`, the Activity was 17%.

`Cc1cc(=O)nc2n1-c1ccc(Cl)cc1/C(c1ccccc1)=N\CC2`: the Activity was determined as 24%.

Biological target in another assay: not listed separately
The assay is described as follows: Displacement of [3H]flunitrazepam from GABAA benzodiazepine receptor in rat brain membrane. It is filed as cell membranes. (In general: Loss of bound radioactivity is the signal in a displacement assay; it reports binding, not function.)
Take `CN1C(=O)CN=C(c2ccccc2)c2cc(Cl)ccc21` [DIAZEPAM]: the pIC50 is 7.67. As for `Cc1cc(=O)nc2n1-c1ccc(Cl)cc1C(c1ccccc1Cl)=NC2`, the pIC50 is 8.06 and 8.82 and 8.36. Turning to `Cc1cc(=O)n2c(n1)CN=C(c1ccccc1)c1cc(Cl)ccc1-2`, the pIC50 is 7.03 and 6.40. `Cc1nnc2n1-c1ccc(Cl)cc1C(c1ccccc1Cl)=NC2` [TRIAZOLAM] showed a pIC50 of 8.81. The same measure, in the same setting: the result for `Clc1ccc2c(c1)C(c1ccccc1)=NCc1nncn1-2` [ESTAZOLAM] reads 7.33.

Broadly, the pIC50 is the IC50 on a negative log10 scale, so that one unit is a factor of ten.
